Measured values from US8343475B2, “Small cationic antimicrobial peptides” (priority 2006, dated 2013).
Converted amounts (≈) assume the structure as drawn. Residues, ends and D or L forms follow the SMILES beside them. No end group written: not given here.

Assays:
[1] = tested on: Staphylococcus aureus ATCC25923; type: cell-based; details: ATCC25923
In short: (§1)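 MIC read as the concentration giving no visible growth after overnight incubation at 37° C. Peptides were diluted in 0.01% acetic acid containing 0.2% bovine serum albumin and tested in Mueller Hinton broth against 2-7×10^5 CFU/ml inoculum in polypropylene microtitre plates.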

[2] = tested on: wild-type Salmonella enterica ssp. typhimurium; type: cell-based
In short: as §1

[3] = tested on: Enterococcus faecalis ATCC29212; type: cell-based; details: ATCC29212
In short: as §1

[4] = tested on: lab isolate of Candida albicans; type: cell-based; details: lab isolate of
In short: as §1

Escherichia coli UB1005 = type: cell-based; details: indolicidin substitution variants (Table 4)
In short: as §1

[5] = tested on: clinical isolate of Staphylococcus epidermidis; type: cell-based; details: clinical isolate of
In short: as §1

[6] = tested on: LPS-stimulated TNFα production in THP-1 cells; assay: Suppression of P. aeruginosa LPS-stimulated TNFα production (ELISA); type: cell-based, human; details: for ability to inhibit TNFα responses compared with indolicidin: 10 ng/ml P. aeruginosa LPS, peptides at 10, 20 and 50 μg/ml (FIG. 13)
Experimental: FIG. 12. Assessment of the ability of peptides to suppress P. aeruginosa LPS (10 ng/ml)-stimulated TNFα production in THP1 cells. Presented results are the mean values for 4 wells performed on 2 separate occasions. The x-axis number labeling is the amount of each peptide in μg/ml for the corresponding peptides.
FIG. 13. Suppression of inflammatory responses by peptides. Monocyte/macrophage-like adherent THP-1 cells were stimulated with 10 ng/ml P. aeruginosa LPS and the resulting TNFα response measured. Peptides were added at 10, 20 and 50 μg/ml. The observed TNF-release was measured by ELISA and related to the 100% value of the untreated (without peptide) cells.
Cytotoxicity and TNFα suppression assay. THP1 cells were cultured in RPMI 1640 medium (supplemented with 10% (v/v) FCS, 1% L-glutamine, and […] sodium pyruvate) in E-toxa-clean (Sigma-Aldrich, Oakville, Ontario, Canada)-washed, endotoxin-free bottle. THP1 cells were counted and 250 μl per well of […] were transferred into a 96 well tissue cultured treated polystyrene microtiterplate (Beckton Dickinson, Franklin Lakes, USA). In addition PMA were added (1.3 nM) and the cells were incubated for three days. After three days the medium were exchanged and Pseudomonas aeruginosa LPS and the peptides were added. The incubation time was four hours and the supernatant was frozen at −20° C. The cells were stained with Tryphan Blue for 2 minutes and washed with PBS two times. The viability of the cells was determined by counting the stained cells over the unstained. The supernatent was used to measure the TNFα production by an ELISA (eBioscience, San Diego, USA) following the manufactures protocol.
LPS from P. aeruginosa strain H103 was highly purified free of proteins and lipids using the Darveau-Hancock method. Briefly, P. aeruginosa was grown overnight in LB broth at 37° C. Cells were collected and washed and the isolated LPS pellets were extracted with a 2:1 chloroform:methanol solution to remove contaminating lipids. Purified LPS samples were quantitated using an assay for the specific sugar 2-keto-3-deoxyoctosonic acid (KDO assay) and then resuspended in endotoxin-free water (Sigma-Aldrich).
Human monocytic cells, THP-1, were obtained from American type culture collection, ATCC® (TIB-202) and were grown in suspension in RPMI-1640 media (Gibco®, Invitrogen™ Life technologies, Burlington, ON), supplemented with 10% (v/v) heat inactivated fetal bovine serum (FBS), 2 mM L-glutamine and 1 mM sodium pyruvate (all from Invitrogen Life Technologies). Cultures were maintained at 37° C. in a humidified 5% (v/v) CO2 incubator up to a maximum of six passages. THP-1 cells at a density of 1×10^6 cells/ml were treated with 0.3 μg/ml phorbol 12-myristate 13-acetate (PMA; Sigma-Aldrich Canada, Oakville ON) for 24 hours, inducing plastic-adherent cells that were further rested in complete RPMI-1640 medium for an additional 24 hours prior to stimulation with various treatments including P. aeruginosa LPS (10 ng/ml) with or without peptides for 24 hours after which supernatants were collected and TNFα assessed by ELISA.
THP-1 cells were stimulated with LPS (10 ng/ml) with or without peptide (10 or 100 μg/ml) for 4 hours as indicated in the results section. Following incubation of the cells under various treatment regimens, the tissue culture supernatants were centrifuged at 1000×g for 5 min, then at 10,000×g for 2 min to obtain cell-free samples. Supernatants were aliquoted and then stored at −20° C. prior to assay for various cytokines. TNFα secretion was detected with a capture ELISA (eBioscience and BioSource International Inc., CA, USA respectively).

[7] = tested on: Pseudomonas aeruginosa PAO1 strain H103; type: cell-based; details: for MIC P. aerug: PAO1
In short: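 Modified broth microdilution MIC in Mueller Hinton medium, peptides diluted in 0.01% acetic acid/0.2% BSA, polypropylene plates. Inoculum 2-7×10^5 CFU/ml, overnight at 37 °C; MIC is the lowest concentration with no visible growth.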

[8] = tested on: multidrug resistant Brazilian clinical isolates of P. aeruginosa; type: cell-based, Pseudomonas aeruginosa
In short: (§2)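 Modified broth microdilution in Mueller Hinton medium, peptides serially diluted in 0.01% acetic acid with 0.2% BSA in polypropylene plates. Inoculum 2-7×10^5 CFU/ml, overnight incubation at 37° C; MIC taken as lowest concentration with no visible growth.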

[9] = tested on: Liverpool Epidemic Strains; type: cell-based, Pseudomonas aeruginosa
In short: as §2

[10] = tested on: MCP-1 release by human PBMC; assay: Chemokine induction in PBMC (capture ELISA); type: cell-based; details: background (204) subtracted
In short: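 Heparinized blood from healthy volunteers; Ficoll-isolated human PBMC (7.5×10^5) treated with peptides at 20 or 100 μg/ml for 24 hours at 37° C, 5% CO2. Cell-free supernatants assayed for MCP-1 by capture ELISA.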

[11] = tested on: CXCL1 (Gro-α) release by human PBMC; assay: Chemokine induction in PBMC (capture ELISA); type: cell-based; details: background (196) subtracted
In short: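 Human PBMC from healthy donors' heparinised blood (Ficoll), 7.5×10^5 cells treated with 20 or 100 μg/ml peptide for 24 h at 37° C, 5% CO2. Cell-free supernatants assayed for CXCL1 by capture ELISA.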

[12] = tested on: clinical isolates of MRSA; type: cell-based, Staphylococcus aureus
In short: as §2

[13] = tested on: MCP-3 release by human PBMC; assay: Chemokine induction in PBMC (capture ELISA); type: cell-based; details: background (6) subtracted
In short: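 Human PBMC from healthy donors (Ficoll-isolated), 7.5×10^5 cells at 0.75–1×10^6 cells/ml, treated with peptides at 20 or 100 μg/ml for 24 h at 37° C, 5% CO2. MCP-3 in cell-free supernatants measured by capture ELISA.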

ESBL E. cloacae = type: cell-based, Enterobacter cloacae
In short: as §2

[14] = tested on: multidrug resistant Pseudomonas maltophilia ATCC13637; type: cell-based
In short: (§3)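 Broth microdilution in Mueller Hinton medium, peptides serially diluted in 0.01% acetic acid with 0.2% BSA in polypropylene plates. Inoculum 2-7×10^5 CFU/ml, incubated overnight at 37° C. MIC is the lowest concentration with no visible growth.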

[15] = tested on: ESBL Klebsiella pneumonia clinical strain 63575; type: cell-based
In short: as §3

[16] = tested on: ESBL E. coli clinical strain 64771; type: cell-based; details: ESBL clinical strain 64771
In short: as §3

Compound | MIC S. aureus [1] [µg/mL] | MIC S. typhi [2] [µg/mL] | MIC E. faecalis [3] [µg/mL] | MIC C. albicans [4] [µg/mL] | MIC E. coli (Escherichia coli UB1005) [µg/mL] | MIC S. epi. [5] [µg/mL] | ability to inhibit TNFα responses compared with indolicidin [6] | MIC P. aerug [7] [µg/mL] | further results
CC[C@H](C)[C@H](N)C(=O)N[C@@H](CC(C)C)C(=O)N1CCC[C@H]1C(=O)N[C@@H](Cc1c[nH]c2ccccc12)C(=O)N[C@@H](CCCCN)C(=O)N[C@@H](Cc1ccccc1)C(=O)N1CCC[C@H]1C(=O)N[C@@H](Cc1c[nH]c2ccccc12)C(=O)N[C@@H](Cc1c[nH]c2ccccc12)C(=O)N1CCC[C@H]1C(=O)N[C@@H](Cc1c[nH]c2ccccc12)C(=O)N[C@@H](CCCNC(=N)N)C(=O)N[C@@H](CCCNC(=N)N)C(N)=O [HH63, ILPWKFPWWPWRR] (H-ILPWKFPWWPWRR-NH2; N-terminus assumed) | 8 (≈ 4.28 µM) | 31 (≈ 16.6 µM) | 31 (≈ 16.6 µM) | 16 (≈ 8.57 µM) | 16 (≈ 8.57 µM) | 4 (≈ 2.14 µM) | slightly better or equivalent than indolicidin | 62 (≈ 33.2 µM) | –
CC[C@H](C)[C@H](N)C(=O)N[C@@H](CC(C)C)C(=O)N[C@@H](CCCCN)C(=O)N[C@@H](Cc1c[nH]c2ccccc12)C(=O)N[C@@H](CCCCN)C(=O)N[C@@H](Cc1c[nH]c2ccccc12)C(=O)N1CCC[C@H]1C(=O)N[C@@H](Cc1c[nH]c2ccccc12)C(=O)N[C@@H](Cc1c[nH]c2ccccc12)C(=O)N1CCC[C@H]1C(=O)N[C@@H](Cc1c[nH]c2ccccc12)C(=O)N[C@@H](CCCNC(=N)N)C(=O)N[C@@H](CCCNC(=N)N)C(N)=O [HH111, ILKWKWPWWPWRR] | 8 (≈ 4.13 µM) | 31 (≈ 16 µM) | 31 (≈ 16 µM) | 8 (≈ 4.13 µM) | 8 (≈ 4.13 µM) | 4 (≈ 2.06 µM) | slightly better or equivalent than indolicidin | 16 (≈ 8.26 µM) | –
CC[C@H](C)[C@H](N)C(=O)N[C@@H](CC(C)C)C(=O)N1CCC[C@H]1C(=O)N[C@@H](Cc1c[nH]c2ccccc12)C(=O)N[C@@H](CCCCN)C(=O)N[C@@H](Cc1c[nH]c2ccccc12)C(=O)N1CCC[C@H]1C(=O)N[C@@H](Cc1c[nH]c2ccccc12)C(=O)N[C@@H](Cc1c[nH]c2ccccc12)C(=O)N[C@@H](CCCCN)C(=O)N[C@@H](Cc1c[nH]c2ccccc12)C(=O)N[C@@H](CCCNC(=N)N)C(=O)N[C@@H](CCCNC(=N)N)C(N)=O [HH117, ILPWKWPWWKWRR] (H-ILPWKWPWWKWRR-NH2; N-terminus assumed) | 8 (≈ 4.13 µM) | 31 (≈ 16 µM) | 31 (≈ 16 µM) | 16 (≈ 8.26 µM) | 8 (≈ 4.13 µM) | 2 (≈ 1.03 µM) | slightly better or equivalent than indolicidin | 16 (≈ 8.26 µM) | –
CC[C@H](C)[C@H](NC(=O)[C@H](CCCCN)NC(=O)[C@H](CC(C)C)NC(=O)[C@@H](NC(=O)[C@@H](N)C(C)C)C(C)C)C(=O)N[C@H](C(=O)N[C@@H](CCCNC(=N)N)C(=O)N[C@@H](CCCNC(=N)N)C(=O)N[C@@H](Cc1ccccc1)C(N)=O)C(C)C [HHC148, VVLKIVRRF] (H-VVLKIVRRF-NH2; N-terminus assumed) | – | – | – | – | – | – | – | – | MIC [1]: 241 µM (≈ 272 µg/mL); MIC [3]: 241 µM (≈ 272 µg/mL); MIC [8]: >241 µM; MIC [9]: 241 µM (≈ 272 µg/mL); Chemokine induction MCP-1 ([10]; 20 μg/ml peptide): 25 pg/mL; Chemokine induction MCP-1 ([10]; 100 μg/ml peptide): 210 pg/mL; Chemokine induction Gro-α ([11]; 20 μg/ml peptide): 55 pg/mL; Chemokine induction Gro-α ([11]; 100 μg/ml peptide): 60 pg/mL; MIC [12]: 241 µM (≈ 272 µg/mL); Chemokine induction MCP-3 ([13]; 20 μg/ml peptide): 1 pg/mL; Chemokine induction MCP-3 ([13]; 100 μg/ml peptide): 3 pg/mL; antimicrobial activity against P. aeruginosa PAO1 (in words) ([7]; laboratory strain P. aeruginosa PAO1): did not return any generally active substances; MIC (ESBL E. cloacae): 241 µM (≈ 272 µg/mL); MIC [14]: 60 µM (≈ 67.7 µg/mL); MIC [15]: >241 µM; MIC [16]: 241 µM (≈ 272 µg/mL)
HH1010: peptide derived from indolicidin; sequence not in the text shown (ILRWKWRWWRWRR-NH2) | – | – | – | – | – | – | slightly better or equivalent than indolicidin | – | –
HH1011: peptide derived from indolicidin; sequence not in the text shown (RWRWWRWRR-NH2) | – | – | – | – | – | – | slightly better or equivalent than indolicidin | – | –
LL-37 [reference compound] | – | – | – | – | – | – | – | – | suppression of LPS-induced TNFα ([6]; P. aeruginosa LPS 10 ng/ml (FIG. 12)): strongly suppressed
